Source: patent US20130266649A1, “NOVEL PHARMACEUTICAL COMPOSITION” (priority 2010, published 2013)
Values joined by “and” are separate entries in the source; they are usually repeats but may differ in a detail not shown here. Identical values can stand only once. “Also recorded” adds a separate entry of the source.

What was measured:
[1] = Solubility of Compound B compared with Compound A; assay type: physicochemical
Excerpt: Experiments were undertaken to determine the acceptable level of the desolvated Compound B in a pharmaceutical dosage form and the appropriate formulation techniques.

[2] = FTIH study: repeat dose (Day 15) pharmacokinetics of Compound tablets; settings: human;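 further: subjects with solid tumors in a first-in-human dose-escalation study, single and repeated once-daily oral tablet dosing, some regimens starting with a loading dose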
Description: (§4) Preliminary PK data was obtained in subjects with solid tumors following single- and repeat-dose oral administration of Compound tablets.
(§5) Additional blood samples were taken pre-dose on Day15 of Cycle 1 and Day 1 of further cycles in Part 2 and Part 3 to assess steady state trough levels of Compound.

[3] = 3 week repeat dose oral toxicokinetic/toxicology study in dogs; settings: for maximum tolerated dose (MTD): oral; for AUC / Cmax at 3 weeks / Cmax: in vivo, po
Excerpt: (§1) The pharmacokinetics, absorption, distribution, metabolism and elimination of N-{3-[3-cyclopropyl-5-(2-fluoro-4-iodo-phenylamino)-6,8-dimethyl-2,4,7-trioxo-3,4,6,7-tetrahydro-2H-pyrido[4,3-d]pyrimidin-1-yl]phenyl}acetamide and solvates thereof, including the dimethyl sulfoxide solvate (collectively referred to as “Compound” when used in connection with animal models or human clinical trials), were investigated in a series of in vitro investigations and with in vivo oral (gavage) and IV studies in the Balb/c mouse, Sprague Dawley rat (unless otherwise stated), beagle dog and cynomolgus monkey using unlabeled and [14C]-labeled Compound. A list of these studies is included, along with subsequently obtained human clinical results, in Table 1 below. For in vivo studies, various formulations were used. For oral dosing, solutions or suspensions were administered.
(§2) Dose range studies in rats at doses up to 1 mg/kg/day for 14 days and in dogs at doses up to 0.5 mg/kg/day (or 10 mg/m2/day) for 10 days were conducted prior to the studies.
(§3) In vivo toxicology studies were conducted in Sprague Dawley rats and beagle dogs by oral gavage (Table 3). Studies were conducted using the DMSO solvate of Compound formulated as a suspension in 1.5% hydroxypropylmethylcellulose, 5% mannitol, and 0.2% sodium lauryl sulfate. For all toxicology studies, doses are expressed based on body surface area (mg/m2). In general, to convert mg/m2 doses to mg/kg, divide the doses by 8 for rats and 20 for dogs.

[4] = clinical; settings: human, plasma
Description: as §4, §5

[5] = FTIH study: single dose (Day 1) pharmacokinetics of Compound tablets; assay type: in vivo; settings: human; for AUC(0-t): read-out: AUC (0-24); for concentration at 24 h: read-out: C24
Description: Preliminary PK data was obtained in subjects with solid tumors following single- and repeat-dose oral administration of Compound tablets. The dose-escalation part of the first-time-in-human study (FTIH), involved administration of Compound in one of 3 main dosing regimens:

[6] = 13 week repeat dose oral toxicokinetic/toxicology study in dogs; settings: dog; for AUC / Cmax: beagle, in vivo, po
Excerpt: as §1, §2, §3

[7] = Photostability: light exposure of tablets in Petri dish (ICH Q1B), impurities by HPLC; assay type: physicochemical
Description: Uncoated tablets, 0.5, 1 and 2 mg were exposed to ICH Photostability conditions and tested to provide baseline impurity information for comparison.

[8] = female, Sprague Dawley, rat, 0.125 mg/m2
[9] = female, Sprague Dawley, rat, 0.25 mg/m2
[10] = female, Sprague Dawley, rat, 0.5 mg/m2
[11] = female, Sprague Dawley, rat, 1 mg/m2
[12] = female, Sprague-Dawley, rat, 0.125 mg/m2
[13] = female, Sprague-Dawley, rat, 0.25 mg/m2
[14] = male, Sprague Dawley, rat, 0.125 mg/m2
[15] = male, Sprague Dawley, rat, 0.25 mg/m2
[16] = male, Sprague Dawley, rat, 0.5 mg/m2
[17] = male, Sprague Dawley, rat, 1 mg/m2
[18] = male, Sprague-Dawley, rat, 0.25 mg/m2
[19] = male, Sprague-Dawley, rat, 0.5 mg/m2
[20] = plasma, oral, Day 1, fasting, 6.0 mg loading dose, mean (CV %), N 10
[21] = plasma, oral, Day 1, fasting, 8.0 mg loading dose, mean (CV %), N 7
[22] = plasma, oral, Day 1, fasting, 10.0 mg loading dose, mean (CV %), N 4
[23] = plasma, single oral dose Day 1, fasting, 0.25 mg, individual (N 1)
[24] = plasma, single oral dose Day 1, fasting, 2.0 mg, mean (CV %), N 3
[25] = plasma, single oral dose Day 1, fasting, 2.5 mg, mean (CV %), N 9
[26] = plasma, single oral dose Day 1, fasting, 3.0 mg, mean (CV %), N 12
[27] = plasma, single oral dose Day 1, fasting, 4.0 mg, mean (CV %), N 3

In the case of `CC(=O)Nc1cccc(-n2c(=O)n(C3CC3)c(=O)c3c(Nc4ccc(I)cc4F)n(C)c(=O)c(C)c32)c1` [Compound B, N-{3-[3-cyclopropyl-5-(2-fluoro-4-iodo-phenylamino)-6,8-dimethyl-2,4,7-trioxo-3,4,6,7-tetrahydro-2H-pyrido[4,3-d]pyrimidin-1-yl]phenyl}acetamide], the “solubility compared with Compound A” value [1] is reported as “significantly less soluble; also recorded: much less soluble”.
With `CC(=O)Nc1cccc(-n2c(=O)n(C3CC3)c(=O)c3c(Nc4ccc(I)cc4F)n(C)c(=O)c(C)c32)c1` [Compound, N-{3-[3-cyclopropyl-5-(2-fluoro-4-iodo-phenylamino)-6,8-dimethyl-2,4,7-trioxo-3,4,6,7-tetrahydro-2H-pyrido[4,3-d]pyrimidin-1-yl]phenyl}acetamide] the “dose proportionality of mean AUC(0-tau) and Cmax” value ([2]; Day 15) was “generally increased in a dose-proportional manner”, the Mean trough concentration ([2]; Day 15, repeat dosing of 2.5 mg, CV 54%) was 16.8 ng/mL and the “effective half-life (T½, eff)” value ([2]; calculated based on the accumulation ratio) was “approximately 5 days”. The mean accumulation ratio ([2]; repeat daily dosing, recommended dose of 2 mg QD) was 6.6, the “maximum tolerated dose (MTD)” value ([3]; dog, 3 weeks) was 0.5 mg/m^2/day and the AUC [3, 8] was 60.2 ng·h/mL. For the same compound, the Cmax at 3 weeks [3, 8] was 3.33 ng/mL, the AUC [3, 9] was 126 ng·h/mL and the Cmax at 3 weeks [3, 9] was 6.28 ng/mL. The AUC [3, 10] was 211 ng·h/mL, the Cmax at 3 weeks [3, 10] was 13 ng/mL and the AUC [3, 11] was 460 ng·h/mL. The Cmax at 3 weeks [3, 11] was 29.4 ng/mL, the AUC [3, 12] was 102 ng·h/mL and the Cmax [3, 12] was 5.3 ng/mL. The AUC [3, 13] was 158 ng·h/mL, the Cmax [3, 13] was 8.03 ng/mL and the Cmax ([3]; female, beagle, dog, 0.3 mg/m2) was 7.19 ng/mL. For the same compound, the AUC ([3]; female, beagle, dog, 0.4 mg/m2) was 211 ng·h/mL, the Cmax ([3]; female, beagle, dog, 0.4 mg/m2) was 11.6 ng/mL and the AUC ([3]; female, beagle, dog, 0.5 mg/m2) was 205 ng·h/mL. For the same compound, the Cmax ([3]; female, beagle, dog, 0.5 mg/m2) was 12.3 ng/mL, the AUC [3, 14] was 35 ng·h/mL and the Cmax [3, 14] was 1.78 ng/mL. For the same compound, the AUC [3, 15] was 64.2 ng·h/mL, the Cmax at 3 weeks [3, 15] was 3.5 ng/mL and the AUC [3, 16] was 129 ng·h/mL. It also gave a Cmax at 3 weeks [3, 16] of 7.78 ng/mL, an AUC [3, 17] of 218 ng·h/mL and a Cmax at 3 weeks [3, 17] of 13.3 ng/mL. For the same compound, the AUC [3, 18] was 95.4 ng·h/mL, the Cmax [3, 18] was 5.34 ng/mL and the AUC [3, 19] was 277 ng·h/mL. For the same compound, the Cmax [3, 19] was 15.4 ng/mL, the AUC ([3]; male, beagle, dog, 0.5 mg/m2) was 159 ng·h/mL and the Cmax ([3]; male, beagle, dog, 0.5 mg/m2) was 9.37 ng/mL. The AUC ([3]; male, beagle, dog, 0.75 mg/m2) was 282 ng·h/mL, the Cmax ([3]; male, beagle, dog, 0.75 mg/m2) was 19 ng/mL and the “maximum tolerated dose (MTD)” value ([3]; rat, 3 weeks, two doses marked MTD, sex shown by bolding only (lost)) was 0.5 mg/m^2/day and 1 mg/m^2/day. The “maximum tolerated dose (MTD)” value ([3]; rat, 13 weeks) was 0.25 mg/m^2/day, the AUC ([4]; both, oral, 2 mg) was 360 ng·h/mL and the Cmax ([4]; both, oral, 2 mg) was 23.3 ng/mL. The AUC(0-t) ([4]; po, 0.25 mg) was 31.1 ng·h/mL, the Cmax ([4]; po, 0.25 mg) was 2.08 ng/mL and the Tmax ([4]; po, 0.25 mg) was 1.5 h. The concentration at 24 h ([4]; po, 0.25 mg) was 1.16 ng/mL, the AUC(0-t) ([4]; po, 2 mg) was 376 ng·h/mL and the Cmax ([4]; po, 2 mg) was 23 ng/mL. The Tmax ([4]; po, 2 mg) was 1.75 h, the concentration at 24 h ([4]; po, 2 mg) was 12.3 ng/mL and the half-life ([4]; po, 2 mg) was 101 h. For the same compound, the AUC(0-t) ([4]; po, 2.5 mg) was 448 ng·h/mL, the Cmax ([4]; po, 2.5 mg) was 26.7 ng/mL and the Tmax ([4]; po, 2.5 mg) was 2 h. The concentration at 24 h ([4]; po, 2.5 mg) was 17 ng/mL, the half-life ([4]; po, 2.5 mg) was 127 h and the AUC(0-t) ([4]; po, 3 mg) was 575 ng·h/mL. The Cmax ([4]; po, 3 mg) was 35.8 ng/mL, the Tmax ([4]; po, 3 mg) was 2.1 h and the concentration at 24 h ([4]; po, 3 mg) was 19.5 ng/mL. The half-life ([4]; po, 3 mg) was 110 h, the “dose proportionality of AUC (0-24) and Cmax” value ([5]; single dose Day 1, lower than proportional at 8 mg, greater at 10 mg) was “dose proportional up to 6 mg” and the Tmax ([5]; single oral dose Day 1, fasting, 0.25 mg, individual (N 1)) was 1.03 h. For the same compound, the Cmax [5, 20] was 23.2 ng/mL, the AUC(0-t) [5, 20] was 197 ng·h/mL and the concentration at 24 h [5, 20] was 6.58 ng/mL. The Tmax ([5]; plasma, oral, Day 1, fasting, 6.0 mg loading dose, median, N 10, read-out: Tmax) was 1.5 h, the Cmax [5, 21] was 14.9 ng/mL and the AUC(0-t) [5, 21] was 161 ng·h/mL. For the same compound, the concentration at 24 h [5, 21] was 5.81 ng/mL, the Tmax ([5]; plasma, oral, Day 1, fasting, 8.0 mg loading dose, median, N 7, read-out: Tmax) was 3 h and the Cmax [5, 22] was 78.7 ng/mL. The AUC(0-t) [5, 22] was 884 ng·h/mL, the concentration at 24 h [5, 22] was 25.5 ng/mL and the Tmax ([5]; plasma, oral, Day 1, fasting, 10.0 mg loading dose, median, N 4, read-out: Tmax) was 1.5 h. For the same compound, the Tmax ([5]; plasma, oral, single dose Day 1, range across doses, read-out: Median Tmax) was 1 to 3 h, the Cmax [5, 23] was 0.34 ng/mL and the concentration at 24 h [5, 23] was 0 ng/mL. It also gave a Cmax [5, 24] of 6.83 ng/mL, an AUC(0-t) [5, 24] of 56.2 ng·h/mL and a concentration at 24 h [5, 24] of 1.49 ng/mL. The Tmax ([5]; plasma, single oral dose Day 1, fasting, 2.0 mg, median, N 3, read-out: Tmax) was 1.5 h, the Cmax [5, 25] was 9.68 ng/mL and the AUC(0-t) [5, 25] was 71.1 ng·h/mL. The concentration at 24 h [5, 25] was 1.81 ng/mL, the Tmax ([5]; plasma, single oral dose Day 1, fasting, 2.5 mg, median, N 9, read-out: Tmax) was 1.5 h and the Cmax [5, 26] was 11.5 ng/mL. The AUC(0-t) [5, 26] was 81.4 ng·h/mL, the concentration at 24 h [5, 26] was 3.35 ng/mL and the Tmax ([5]; plasma, single oral dose Day 1, fasting, 3.0 mg, median, N 12, read-out: Tmax) was 1.25 h. For the same compound, the Cmax [5, 27] was 27.1 ng/mL, the AUC(0-t) [5, 27] was 223 ng·h/mL and the concentration at 24 h [5, 27] was 8.77 ng/mL. For the same compound, the “No Observed Adverse Effect Level (NOAEL)” value ([6]; 13 weeks, oral) was 0.45 mg/m^2/day, the AUC ([6]; female, 0.15 mg/m2) was 51.8 ng·h/mL and the Cmax ([6]; female, 0.15 mg/m2) was 2.71 ng/mL. It also gave a Cmax ([6]; female, 0.3 mg/m2) of 7.24 ng/mL, an AUC ([6]; female, 0.45 mg/m2/day) of 150 ng·h/mL and a Cmax ([6]; female, 0.45 mg/m2/day) of 9.78 ng/mL. It also gave an AUC ([6]; male, 0.15 mg/m2) of 45.6 ng·h/mL, a Cmax ([6]; male, 0.15 mg/m2) of 2.32 ng/mL and an AUC ([6]; male, 0.3 mg/m2) of 95.5 ng·h/mL. The Cmax ([6]; male, 0.3 mg/m2) was 5.15 ng/mL, the AUC ([6]; male, 0.45 mg/m2/day) was 128 ng·h/mL and the Cmax ([6]; male, 0.45 mg/m2/day) was 8.42 ng/mL.
For `CC(=O)Nc1cccc(-n2c(=O)n(C3CC3)c(=O)c3c(Nc4ccc(I)cc4F)n(C)c(=O)c(C)c32)c1` [Compound A, N-{3-[3-cyclopropyl-5-(2-fluoro-4-iodo-phenylamino)-6,8-dimethyl-2,4,7-trioxo-3,4,6,7-tetrahydro-2H-pyrido[4,3-d]pyrimidin-1-yl]phenyl}acetamide dimethyl sulfoxide solvate], the photo-stability [7] was “sensitive to photo-induced degradation”.
